In patent publication US10316061B2, “Synthesis of cell penetrating peptides for drug delivery and stem cell applications” (Temple University-Of The Commonwealth System of Higher …, priority 2014, dated 2019):

Legend:
ReNcell VM cells = test: Immunocytochemistry of Tubb3 / MAP2 protein expression in 4-week differentiated ReNcell VM; assay type: cell-based, human
Description: FIG. 15. Tubb3 Expression Analysis for 4-Week Differentiated ReNcell VM Cells. ReNcell VM cells were treated with neural stem cell culture medium (control), RA (retinoic acid), RA-PepB, C16-PepB, LiCl, and IFNγ (interferon gamma). Tubb3 proteins expressed in the cells were stained as green and cell nuclei were stained with blue (DAPI).
FIG. 16. MAP2 Expression Analysis for 4-Week Differentiated ReNcell VM Cells. ReNcell VM treated with cell culture media (control), RA, RA-PepB, C16-PepB, LiCl, and IFNγ (interferon gamma). MAP2 proteins expressed in the cells were stained as green and cell nuclei were stained with blue (DAPI) FIG. 17. Quantitation of Immunocytochemistry Results for Tubb3/MAP2 Proteins. Relative numbers of the cells expressing Tubb3 and MAP2 proteins were counted and normalized to the control group (*P<0.05, **P<0.01).
The proteins expressed in ReNcell VM cells were visualized with antibodies to study the protein expression by the differentiation of the stem cells in the presence of various soluble factors including RA-PepB and C16-PepB. […] As is shown in FIGS. 15 and 16, Tubb3 or MAP2 expression levels in 4-week differentiated ReNcell VM cells were evaluated via immunocytochemistry (ICC). Protein expression, after antibody staining, was visualized and quantitatively compared by counting Tubb3 or MAP2-positive cells. […]

ReNcell VM = test: RT-qPCR analysis of neural marker gene expression in differentiated ReNcell VM; assay type: cell-based, human
Description: Differentiated stem cells were cultured for 10 weeks.
The statistical significance was evaluated compared to the control (differentiated ReNcell VM without chemicals) *P<0.05, **P<0.01. GAPDH served as control.
Total mRNA was extracted using mRNA isolation kit (Ambion, Life Technologies) according to the manufacturer's protocol. For higher yield, neural stem cells from eight wells in the same culture plate were homogenized in cell lysis buffer.
Concentrations of mRNA samples were evaluated based on OD260/OD280. mRNA samples were reverse transcribed using reverse transcription kit (Applied Biosystems). PCR amplification of cDNA was carried out using universal PCR master mix (Applied Biosystems) and gene-specific primer sets (Applied Biosystems). These primers included neural stem cell (Nestin, SOX2), immature neuron (Tubb3), mature neuron (MAP2), and astrocyte (GFAP) specific genes. GAPDH was used as a control (house keeping gene). The cycles for RT-PCR consisted of 1 second denaturation at 95° C., 20 second annealing at 60° C. RT-PCR products were analyzed using Mastercycler ep realplex 4 (Eppendorf).

HEK293 cells = test: Live-cell / confocal uptake of ROX-labeled PepA derivatives in HEK293; assay type: cell-based; conditions: HEK293 cultures; ROX dye label
From the text: FIG. 9 is a series of images depicting live-cell uptake of bioactive peptide A (PepA) labeled with the ROX Dye. Bioconjugation with palmitic acid (C16 tail) and/or CPP AAAAEK (PepX) attachments increased cellular uptake in HEK293 cultures.
FIG. 11 is a series of images depicting laser-scanning confocal microscope imaging of bioactive peptide A (PepA) labeled with the ROX dye. Bioconjugation with palmitic acid (C16 tail) and/or CPP AAAAEK (PepX) attachments increased cellular uptake in HEK293 cultures.
Bioactive (model) peptide A (PepA) and CPP X (PepX) were synthesized via solid phase peptide synthesis (SPPS) methods (Suh et al., 2001 Comprehen. Biomat 4: 219-245; Suh et al., 2013 Polymer Adhesion, Friction and Lubrication 283-317 (Wiley)). Fmoc-deprotection was performed with organic bases such as 4-methyl piperidine and DBU in DMF at room temperature. Coupling reaction was performed in the presence of Fmoc-protected amino acids with the mixture of coupling reagents and organic bases (e.g., HBTU, HOBt and DIEA). The cleaved peptide from the resin was purified by HPLC, collected, and stored for future uses. HEK293 and ReNcell VM cell lines were maintained and utilized for cellular experiments. Live-Cell imaging analysis was performed on an Olympus IX81 and IX83-DSU wide-field spinning disc confocal microscope equipped with an LCI Chamlide stage-top incubator unit. […]

[Cl-].[Li+] [LiCl, lithium chloride]
Tubb3 expression compared to the control (ICC, positive cell count) (ReNcell VM cells): statistically significant increases

CC1=C(/C=C/C(C)=C/C=C/C(C)=C/C(=O)O)C(C)(C)CCC1 [RA, Retinoic acid]
cytotoxicity in differentiation culture (FIG. 6) (ReNcell VM; differentiated stem cells cultured for 10 weeks): Highly cytotoxic; low cell count among results

AAAAEK(A) [PepB]
live-cell uptake (FIG. 9) (HEK293 cells): increased cellular uptake of multiple peptides in a synergistic manner | neuronal differentiation by qRT-PCR (FIGS. 12 and 13) (ReNcell VM; 1 to 4 weeks of differentiation, GAPDH control): increased neuronal differentiations
